Experimental data from patent US7470684B2, “Spiropiperidine derivatives as NK3 antagonists” (Hoffmann-La Roche Inc., priority 2007, dated 2008).
Where a name gives a salt, the structure may show the parent alone. Read-outs that look alike come from different tables or passages of the source.

Target: T1, human NK3 receptor (Homo sapiens, UniProt P29371)
T1 construct: expressed in transfected cells; host or cells: HEK293 cells, transiently transfected; membranes
T1 sequence (P29371 1-465): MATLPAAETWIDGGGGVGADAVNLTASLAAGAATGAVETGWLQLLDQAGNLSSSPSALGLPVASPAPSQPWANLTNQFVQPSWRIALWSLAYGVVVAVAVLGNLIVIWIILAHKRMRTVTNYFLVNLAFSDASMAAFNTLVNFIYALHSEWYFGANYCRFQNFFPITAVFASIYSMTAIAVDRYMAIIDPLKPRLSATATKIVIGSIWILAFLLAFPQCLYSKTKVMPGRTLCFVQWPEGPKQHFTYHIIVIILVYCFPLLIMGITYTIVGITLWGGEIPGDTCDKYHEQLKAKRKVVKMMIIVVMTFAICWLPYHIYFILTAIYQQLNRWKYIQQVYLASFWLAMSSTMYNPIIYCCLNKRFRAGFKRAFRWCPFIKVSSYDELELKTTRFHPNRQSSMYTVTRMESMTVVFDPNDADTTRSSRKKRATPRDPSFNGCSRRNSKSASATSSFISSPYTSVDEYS
Experiment: [3H]SR142801 competition binding assay
In short: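 Membranes from HEK293 cells transiently expressing human NK3 receptor incubated 75 min at RT with [3H]SR142801 at its KD and compound (0.0003-10 μM) in pH 7.4 Tris/MnCl2 buffer. Filtration and scintillation counting, nonspecific binding with 10 μM SB222200. IC50 from Hill fit, Ki by Cheng-Prusoff, duplicates.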

[1] = hNK3 Ki, [3H]SR142801 displacement, membranes of HEK293 cells transiently expressing recombinant human NK3 receptor
[2] = [3H]SR142801 displacement, membranes of HEK293 cells transiently expressing recombinant human NK3 receptor, read-out: hNK3 Ki

Structure (SMILES)	Ki [1]	also measured
O=C1Nc2ccc(F)cc2C2(CCN(CCC(C(=O)NCc3ccccc3OC(F)(F)F)c3ccc(F)cc3)CC2)O1 (stereo not drawn) [Example 49, 4-(6-fluoro-2-oxo-1,2-dihydro-1′H-spiro[3,1-benzoxazine-4,4′-piperidin]-1′-yl)-2-(4-fluorophenyl)-N-[2-(trifluoromethoxy)benzyl]butanamide]	90.9 nM	
CN1C(=O)OC2(CCN(CCC(C(=O)NCc3ccc(-n4cccn4)cc3)c3ccc(Cl)c(Cl)c3)CC2)c2cc(F)ccc21 (stereo not drawn) [Example 94, 2-(3,4-dichlorophenyl)-4-(6-fluoro-1-methyl-2-oxo-1,2-dihydro-1′H-spiro[3,1-benzoxazine-4,4′-piperidin]-1′-yl)-N-[4-(1H-pyrazol-1-yl)benzyl]butanamide]		Ki: 87.7 nM
Cc1ccc(CNC(=O)C(CCN2CCC3(CC2)OC(=O)Nc2ccc(F)cc23)c2ccc(Cl)c(Cl)c2)o1 (stereo not drawn) [Example 9, 2-(3,4-dichlorophenyl)-4-(6-fluoro-2-oxo-1,2-dihydro-1′H-spiro[3,1-benzoxazine-4,4′-piperidin]-1′-yl)-N-[(5-methyl-2-furyl)methyl]butanamide]		Ki [2]: 91.4 nM
COc1ccc(CN(C)C(=O)C(CCN2CCC3(CC2)OC(=O)N(C)c2ccc(F)cc23)c2ccc(Cl)c(Cl)c2)cc1F (stereo not drawn) [Example 99, 2-(3,4-dichlorophenyl)-N-(3-fluoro-4-methoxybenzyl)-4-(6-fluoro-1-methyl-2-oxo-1,2-dihydro-1′H-spiro[3,1-benzoxazine-4,4′-piperidin]-1′-yl)-N-methyl-butanamide]	2.4 nM	
CN(Cc1ccc(F)cc1)C(=O)C(CCN1CCC2(CC1)OC(=O)N(C)c1ccc(F)cc12)c1ccc(Cl)c(Cl)c1 (stereo not drawn) [Example 105, 2-(3,4-dichlorophenyl)-N-(4-fluorobenzyl)-4-(6-fluoro-1-methyl-2-oxo-1,2-dihydro-1′H-spiro[3,1-benzoxazine-4,4′-piperidin]-1′-yl)-N-methyl-butanamide]	1 nM	
CN1C(=O)OC2(CCN(CCC(C(=O)N3CCC(F)CC3)c3ccc(Cl)c(Cl)c3)CC2)c2cc(F)ccc21 (stereo not drawn) [Example 43, 1′-[3-(3,4-dichlorophenyl)-4-(4-fluropiperidin-1-yl)-4-oxobutyl]-6-fluoro-1-methylspiro[3,1-benzoxazine-4,4′-piperidin]-2(1H)-one]		Ki: 61.9 nM
CN(Cc1ccc(F)cc1)C(=O)C(CCCN1CCC2(CC1)OC(=O)Nc1ccc(F)cc12)c1ccc(Cl)c(Cl)c1 (stereo not drawn) [Example 131, 2-(3,4-dichlorophenyl)-N-(4-fluorobenzyl)-5-(6-fluoro-2-oxo-1,2-dihydro-1′H-spiro[3,1-benzoxazine-4,4′-piperidin]-1′-yl)-N-methylpentanamide]	69.2 nM	
O=C1Nc2ccc(F)cc2C2(CCN(CCC(C(=O)NCc3ccc(Cl)cc3Cl)c3ccc(F)cc3)CC2)O1 (stereo not drawn) [Example 47, N-(2,4-dichlorobenzyl)-4-(6-fluoro-2-oxo-1,2-dihydro-1′H-spiro[3,1-benzoxazine-4,4′-piperidin]-1′-yl)-2-(4-fluorophenyl)butanamide]	82.7 nM	
CN(Cc1cccc(C(F)(F)F)c1)C(=O)C(CCN1CCC2(CC1)OC(=O)Nc1ccc(F)cc12)c1ccc(Cl)c(Cl)c1 (stereo not drawn) [Example 79, 2-(3,4-dichlorophenyl)-4-(6-fluoro-2-oxo-1,2-dihydro-1′H-spiro[3,1-benzoxazine-4,4′-piperidin]-1′-yl)-N-methyl-N-[3-(trifluoromethyl)benzyl]butanamide]	6.6 nM	
CN(Cc1cccc(C(F)(F)F)c1)C(=O)C(CCN1CCC2(CC1)OC(=O)Nc1ccc(F)cc12)c1ccc(F)cc1 (stereo not drawn) [Example 58, 4-(6-fluoro-2-oxo-1,2-dihydro-1′H-spiro[3,1-benzoxazine-4,4′-piperidin]-1′-yl)-2-(4-fluorophenyl)-N-methyl-N-[3-(trifluoromethyl)benzyl]butanamide]	94.9 nM	
CN(Cc1ccc(Cl)cc1)C(=O)[C@H](CCN1CCC2(CC1)OC(=O)N(C)c1ccc(F)cc12)c1ccc(Cl)c(Cl)c1 [Example 147, (2R)-N-(4-chlorobenzyl)-2-(3,4-dichlorophenyl)-4-(6-fluoro-1-methyl-2-oxo-1,2-dihydro-1′H-spiro[3,1-benzoxazine-4,4′-piperidin]-1′-yl)-N-methylbutanamide]		Ki: 1.8 nM
O=C1Nc2ccc(F)cc2C2(CCN(CCC(C(=O)NCc3ccc(Cl)cc3Cl)c3ccc(Cl)c(Cl)c3)CC2)O1 (stereo not drawn) [Example 62, N-(2,4-dichlorobenzyl)-2-(3,4-dichlorophenyl)-4-(6-fluoro-2-oxo-1,2-dihydro-1′H-spiro[3,1-benzoxazine-4,4′-piperidin]-1′-yl)butanamide]		Ki [2]: 10 nM
CN(CCc1ccccc1)C(=O)C(CCN1CCC2(CC1)OC(=O)N(C)c1ccc(F)cc12)c1ccc(Cl)c(Cl)c1 (stereo not drawn) [Example 90, 2-(3,4-dichlorophenyl)-4-(6-fluoro-1-methyl-2-oxo-1,2-dihydro-1′H-spiro[3,1-benzoxazine-4,4′-piperidin]-1′-yl)-N-metyl-N-(2-phenylethyl)butanamide]		Ki: 8 nM
CCN(Cc1ccc(C)cc1)C(=O)C(CCN1CCC2(CC1)OC(=O)Nc1ccc(F)cc12)c1ccc(Cl)c(Cl)c1 (stereo not drawn) [Example 18, 2-(3,4-dichlorophenyl)-N-ethyl-4-(6-fluoro-2-oxo-1,2-dihydro-1′H-spiro[3,1-benzoxazine-4,4′-piperidin]-1′-yl)-N-(4-methylbenzyl)butnamide]	15.7 nM	
CN1C(=O)OC2(CCN(CCC(C(=O)NCc3cccc(OC(F)(F)F)c3)c3ccc(Cl)c(Cl)c3)CC2)c2cc(F)ccc21 (stereo not drawn) [Example 103, 2-(3,4-dichlorophenyl)-4-(6-fluoro-1-methyl-2-oxo-1,2-dihydro-1′H-spiro[3,1-benzoxazine-4,4′-piperidin]-1′-yl)-N-[3-(trifluoromethoxy)benzyl]butanamide]	3.7 nM	
C[C@H](NC(=O)[C@H](CCN1CCC2(CC1)OC(=O)Nc1ccc(F)cc12)c1ccc(Cl)c(Cl)c1)c1ccccc1 [Example 146, (2R)-2-(3,4-dichlorophenyl)-4-(6-fluoro-2-oxo-1,2-dihydro-1′H-spiro[3,1-benzoxazine-4,4′-piperidin]-1′-yl)-N-[(1S)-1-phenylethyl]butanamidehydrochloride]	5.7 nM	
O=C1Nc2ccc(F)cc2C2(CCN(CCCC(C(=O)NCc3ccc(Cl)cc3)c3ccc(Cl)c(Cl)c3)CC2)O1 (stereo not drawn) [Example 125, N-(4-chlorobenzyl)-2-(3,4-dichlorophenyl)-5-(6-fluoro-2-oxo-1,2-dihydro-1′H-spiro[3,1-benzoxazine-4,4′-piperidin]-1′-yl)pentanamide]	98.3 nM	
O=C1Nc2ccc(F)cc2C2(CCN(CCC(C(=O)NCc3cccc(C(F)(F)F)c3)c3ccc(Cl)c(Cl)c3)CC2)O1 (stereo not drawn) [Example 83, 2-(3,4-dichlorophenyl)-4-(6-fluoro-2-oxo-1,2-dihydro-1′H-spiro[3,1-benzoxazine-4,4′-piperidin]-1′-yl)-N-[3-(trifluoromethyl)benzyl]butanamide]	12.9 nM	
CN(Cc1cccc(F)c1)C(=O)C(CCN1CCC2(CC1)OC(=O)N(C)c1ccc(F)cc12)c1ccc(Cl)c(Cl)c1 (stereo not drawn) [Example 101, 2-(3,4-dichlorophenyl)-N-(3-fluorobenzyl)-4-(6-fluoro-1-methyl-2-oxo-1,2-dihydro-1′H-spiro[3,1-benzoxazine-4,4′-piperidin]-1′-yl)-N-methyl-butanamide]	1.3 nM	
COc1ccc(CN(C)C(=O)C(CCN2CCC3(CC2)OC(=O)Nc2ccc(F)cc23)c2ccc(Cl)c(Cl)c2)cc1F (stereo not drawn) [Example 74, 2-(3,4-dichlorophenyl)-N-(3-fluoro-4-methoxybenzyl)-4-(6-fluoro-2-oxo-1,2-dihydro-1′H-spiro[3,1-benzoxazine-4,4′-piperidin]-1′-yl)-N-methylbutanamide]	5.5 nM	
Cc1ccsc1CNC(=O)C(CCCN1CCC2(CC1)OC(=O)Nc1ccc(F)cc12)c1ccc(Cl)c(Cl)c1 (stereo not drawn) [Example 116, 2-(3,4-dichlorophenyl)-5-(6-fluoro-2-oxo-1,2-dihydro-1′H-spiro[3,1-benzoxazine-4,4′-piperidin]-1′-yl)-N-[(3-methyl-2-thienyl)methyl]pentanamide]		Ki [2]: 66.8 nM
CN1C(=O)OC2(CCN(CCC(C(=O)NCc3ccccc3)c3ccc(Cl)c(Cl)c3)CC2)c2cc(F)ccc21 (stereo not drawn) [Example 32, N-benzyl-2-(3,4-dichlorophenyl)-4-(6-fluoro-1-methyl-2-oxo-1,2-dihydro-1′H-spiro[3,1-benzoxazine-4,4′-piperidin]-1′-yl)-butanamide]	3.9 nM	
CCN(Cc1ccccc1)C(=O)C(CCN1CCC2(CC1)OC(=O)N(C)c1ccc(F)cc12)c1ccc(Cl)c(Cl)c1 (stereo not drawn) [Example 29, N-benzyl-2-(3,4-dichlorophenyl)-N-ethyl-4-(6-fluoro-1-methyl-2-oxo-1,2-dihydro-1′H-spiro[3,1-benzoxazine-4,4′-piperidin]-1′-yl)-butanamide]	6.7 nM	
CN(Cc1ccccc1Cl)C(=O)C(CCN1CCC2(CC1)OC(=O)Nc1ccc(F)cc12)c1ccc(Cl)c(Cl)c1 (stereo not drawn) [Example 17, N-(2-chlorobenzyl)-2-(3,4-dichlorophenyl)-4-(6-fluoro-2-oxo-1,2-dihydro-1′H-spiro[3,1-benzoxazine-4,4′-piperidin]-1′-yl)-N-methylbutanamide]	6.7 nM	
